Structures can show the parent of a compound that is named as a salt.

A word on the Ki: it is the equilibrium dissociation constant of an inhibitor or competing ligand from its target.

Chain of factor Xa (P00742 235-488 limits assumed): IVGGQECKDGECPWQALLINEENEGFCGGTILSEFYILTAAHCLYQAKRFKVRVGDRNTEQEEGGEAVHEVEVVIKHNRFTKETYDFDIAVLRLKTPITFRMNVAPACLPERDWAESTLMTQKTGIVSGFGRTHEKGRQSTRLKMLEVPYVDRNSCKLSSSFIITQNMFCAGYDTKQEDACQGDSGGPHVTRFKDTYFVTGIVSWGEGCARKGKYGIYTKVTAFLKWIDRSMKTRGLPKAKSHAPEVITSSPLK
Chain of factor Xa (P00742 41-179 limits assumed): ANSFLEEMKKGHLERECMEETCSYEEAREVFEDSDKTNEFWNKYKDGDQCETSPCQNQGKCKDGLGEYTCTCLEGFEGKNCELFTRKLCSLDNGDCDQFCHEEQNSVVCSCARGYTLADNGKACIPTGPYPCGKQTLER

This test addresses factor Xa (Homo sapiens, UniProt P00742). The test can be described thus: Factor Xa assay (Test 1a), chromogenic. It is filed as biochemical. The note with it: in vitro factor Xa assay Test 1a; human factor Xa 0.5 nM, substrate S-2765 140 μM, 25° C.; Ki from IC50 corrected for substrate competition. Set-up: purchased Enzyme Research Laboratories, Inc; South Bend, Ind. The source says: The ability of a compound of formula (I) to inhibit factor Xa, thrombin, plasmin, elastase, and trypsin may be assessed by determining the concentration of compound of formula (I) that inhibits enzyme activity by 50% (IC50). Purified enzymes are used in chromogenic assays. To determine the inhibition constant, the IC50 value is corrected for competition with substrate using the formula:
Ki=IC50×(1/{1+((substrate concentration)/substrate Km)})
where Km is the Michaelis-Menten constant. Y. -C. Chen and W. H. Prusoff, Biochem. Pharmacol. 22: […] (1973), which is incorporated herein by reference.
TBS-PEG buffer (50 mM Tris-Cl, pH 7.8, 200 mM NaCl, 0.05% (w/v) PEG-8000, 0.02% (w/v) NaN3) is used for this assay. The IC50 is determined by combining in appropriate wells of a Costar half-area microtiter plate 25 μl human factor Xa (Enzyme Research Laboratories, Inc.; South Bend, Ind.) in TBS-PEG; 40 μl 10% (v/v) DMSO in TBS-PEG (uninhibited control) or various concentrations of the compound to be tested diluted in 10% (v/v) DMSO in TBS-PEG; and substrate S-2765 (N-benzyloxycarbonyl-D-Arg-Gly-L-Arg-p-nitroanilide; Kabi Pharmacia, Inc.; Franklin Ohio) in TBS-PEG.
The assays are performed by pre-incubating the compound of formula (I) plus enzyme for 10 min, then the assay is initiated by adding substrate to obtain a final volume of 100 μl. The initial velocity of chromogenic substrate hydrolysis is measured by the change in absorbance at 405 nm using a Bio-tek Instruments kinetic plate reader (Ceres UV900HDi) at 25° C. during the linear portion of the time course (usually 1.5 min after addition of substrate). The concentration of inhibitor that causes a 50% decrease in the rate of substrate hydrolysis is predicted by linear regression after plotting the relative rates of hydrolysis (compared to the uninhibited control) versus the log of the compound of formula (I) concentration. The enzyme concentration is 0.5 nM and substrate concentration is 140 μM.
Consider `CCCCOC(=O)[C@H](CCCNC(=N)N)NC(=O)[C@@H](NC(=O)C(Cc1ccc(C(=N)N)cc1)C1CCCCC1)C1CCCCC1` (single isomer, unassigned; less polar) [Example 188], for which the affinity, expressed as Ki, was 22 nM.
As for `CCCOC(=O)C(CCCNC(=N)N)NC(=O)C(NC(=O)C(Cc1ccc(C(=N)N)cc1)C1CCCCC1)C1CCCCC1` (single isomer, unassigned; less polar) [Example 189], the figure is 20 nM; as for `N=C(N)c1ccc(CC(C(=O)N[C@H](C(=O)NCC2CCN(C(=N)N)CC2)C2CCCCC2)c2ccc(Cl)cc2)cc1` (single isomer, unassigned; less polar) [Example 216], 19 nM.
As for `N=C(N)c1ccc(CC(C(=O)N[C@H](C(=O)NCC2CCC(C(=N)N)CC2)C2CCCCC2)c2cccc(Br)c2)cc1` (single isomer, unassigned; less polar) [Example 219], the figure is 5 nM; as for `N=C(N)c1ccc(CC(C(=O)N[C@H](C(=O)NCC2CCN(C(=N)N)CC2)C2CCCCC2)c2ccccc2)cc1` (single isomer, unassigned; less polar) [Example 222], 43 nM; as for `CC(=N)N1CCC(CNC(=O)C(NC(=O)C(Cc2ccc(C(=N)N)cc2)c2cccc(Br)c2)C2CCCCC2)CC1` (single isomer, unassigned; less polar) [Example 223], 1 nM.
As for `N=C(N)c1ccc(CC(C(=O)N[C@H](C(=O)NCC2CCN(C(=N)N)CC2)C2CCCCC2)c2ccccc2Cl)cc1` (single isomer, unassigned; less polar) [Example 230], the figure is 1 nM.
In turn, `N=C(N)c1ccc(CC(C(=O)N[C@H](C(=O)NCC2CCN(C(=N)N)CC2)C2CCCCC2)c2ccc(C(F)(F)F)cc2)cc1` (single isomer, unassigned; less polar) [Example 232] gave a Ki of 24 nM.
In the case of `N=C(N)c1ccc(CC(C(=O)N[C@H](C(=O)NCC2CCN(C(=N)N)CC2)C2CCCCC2)c2ccccc2OC(F)(F)F)cc1` (single isomer, unassigned; less polar) [Example 233] it was 33 nM; in that of `N=C(N)c1ccc(CC(C(=O)N[C@H](C(=O)NCC2CCN(C(=N)N)CC2)C2CCCCC2)c2ccccc2F)cc1` (single isomer, unassigned; less polar) [Example 235], 12 nM.
Turning to `N=C(N)c1ccc(CC(C(=O)N[C@H](C(=O)NCC2CCN(C(=N)N)CC2)C2CCCCC2)c2ccccc2Br)cc1` (single isomer, unassigned; less polar) [Example 236], the Ki was 5 nM.
In the case of `N=C(N)c1ccc(CC(C(=O)N[C@H](C(=O)NCC2CCN(C(=N)N)CC2)C2CCCCC2)c2cccc3ccccc23)cc1` (single isomer, unassigned; less polar) [Example 241] it was 25 nM; in that of `CC(C)OC(=O)[C@H](CCCNC(=N)N)NC(=O)[C@@H](NC(=O)C(Cc1ccc(C(=N)N)cc1)c1cccc(Br)c1)C1CCCCC1` (single isomer, unassigned; less polar) [Example 242], 2 nM; in that of `CN(C)C(=O)[C@H](CCCNC(=N)N)NC(=O)[C@@H](NC(=O)C(Cc1ccc(C(=N)N)cc1)c1cccc(Br)c1)C1CCCCC1` (single isomer, unassigned; less polar) [Example 246], 0.7 nM.
In the case of `CS(=O)(=O)c1cccc(C(Cc2ccc(C(=N)N)cc2)C(=O)N[C@H](C(=O)NCC2CCN(C(=N)N)CC2)C2CCCCC2)c1` (single isomer, unassigned; less polar) [Example 252] it was 31 nM; in that of `CC(=N)N1CCC(CNC(=O)[C@@H](NC(=O)C(Cc2ccc(C(=N)N)cc2)c2cccc(C(F)(F)F)c2)C2CCCCC2)CC1` (single isomer, unassigned; less polar) [Example 258], 8 nM.
`N=C(N)NCCCC(NC(=O)C(NC(=O)C(Cc1ccc(C(=N)N)cc1)c1cccc(Cl)c1)C1CCCCC1)C(N)=O` (single isomer, unassigned; more polar) [Example 125] displayed an inhibition constant Ki of 2570 nM.
As for `Cc1ccc(C(Cc2ccc(C(=N)N)cc2)C(=O)NC(C(=O)NCc2ccc(C(=N)N)cc2)C2CCCCC2)cc1` (single isomer, unassigned; more polar) [Example 153], the figure is 5840 nM; as for `Cc1ccccc1C(Cc1ccc(C(=N)N)cc1)C(=O)NC(C(=O)NCC1CCN(C(=N)N)CC1)C1CCCCC1` (single isomer, unassigned; more polar) [Example 162], 25 nM; as for `CC(C)OC(=O)[C@H](CCCNC(=N)N)NC(=O)[C@@H](NC(=O)C(Cc1ccc(C(=N)N)cc1)c1cccc(Br)c1)C1CCCCC1` (single isomer, unassigned; more polar) [Example 243], 25 nM.
In the case of `N=C(N)NCCC[C@H](NC(=O)[C@@H](NC(=O)C(Cc1ccc(C(=N)N)cc1)c1cccnc1)C1CCCCC1)C(N)=O` (stereo partly drawn) [Example 10, 2-(S)-{2-(S)-[3-(4-Carbamimidoyl-phenyl)-2-(R,S)-pyridin-3-yl-propionylamino]-2-cyclohexyl-acetylamino}-5-guanidino-pentanoic acid amide trifluoroactic acid salt] it was 0.9 nM.
`N=C(N)NCCC[C@H](NC(=O)C(NC(=O)C(Cc1ccc(C(=N)N)cc1)C1CCCCC1)C1CCCCC1)C(=O)NCc1cccs1` (stereo partly drawn) [Example 192, 2-(S)-{2-[3-(4-Carbamimidoyl-phenyl)-2-cyclohexyl-propionylamino]-2-cyclohexyl-acetylamino}-5-guanidino-pentanoic acid (thiophen-2-ylmethyl)-amide trifluoroacetic acid salt]: the Ki worked out at 44 nM.
As for `N=C(N)NCCC[C@H](NC(=O)C(NC(=O)C(Cc1ccc(C(=N)N)cc1)C1CCCCC1)C1CCCCC1)C(=O)NCc1ccncc1` (stereo partly drawn) [Example 194, 2-(S)-{2-[3-(4-Carbamimidoyl-phenyl)-2-cyclohexyl-propionylamino]-2-cyclohexyl-acetylamino}-5-guanidino-pentanoic acid (pyridin-4-ylmethyl)-amide trifluoroacetic acid salt], the figure is 34 nM.
As for `N=C(N)NCCC[C@H](NC(=O)C(NC(=O)C(Cc1ccc(C(=N)N)cc1)C1CCCCC1)C1CCCCC1)C(=O)NC(c1ccccc1)c1ccccc1` (stereo partly drawn) [Example 195, 2-(S)-2-[3-(4-Carbamimidoyl-phenyl)-2-cyclohexyl-propionylamino]-2-cyclohexyl-acetylamino}-5-guanidino-pentanoic acid benzhydryl-amide trifluoroacetic acid salt], the figure is 32 nM.
On to `N=C(N)NCCC[C@H](NC(=O)C(NC(=O)C(Cc1ccc(C(=N)N)cc1)C1CCCCC1)C1CCCCC1)C(=O)NCc1ccccc1` (stereo partly drawn) [Example 196, 2-(S)-{2-[3-(4-Carbamimidoyl-phenyl)-2-cyclohexyl-propionylamino]-2-cyclohexyl-acetylamino}-5-guanidino-pentanoic acid benzylamide trifluoroacetic acid salt], for which the inhibitory constant (Ki) was 39 nM.
Molecule `N=C(N)NCCC[C@H](NC(=O)C(NC(=O)C(Cc1ccc(C(=N)N)cc1)C1CCCCC1)C1CCCCC1)C(=O)NCc1ccc(Cl)cc1` (stereo partly drawn) [Example 201, 2-(S)-{2-[3-(4-Carbamimidoyl-phenyl)-2-cyclohexyl-propionylamino]-2-cyclohexyl-acetylamino}-5-guanidino-pentanoic acid 4-chloro-benzylamide trifluoroacetic acid salt] displayed a Ki of 42 nM.
For `COc1ccc(CNC(=O)C(CCCNC(=N)N)NC(=O)C(NC(=O)C(Cc2ccc(C(=N)N)cc2)C2CCCCC2)C2CCCCC2)cc1` [Example 202, 2-(S)-{2-[3-(4-Carbamimidoyl-phenyl)-2-cyclohexyl-propionylamino]-2-cyclohexyl-acetylamino}-5-guanidino-pentanoic acid 4-methoxy-benzylamide trilfuoroacetic acid salt], the affinity, expressed as Ki, was 28 nM.
As for `N=C(N)c1ccc(CC(C(=O)N[C@H](C(=O)NCC2CCN(C(=N)N)CC2)C2CCCCC2)c2ccccc2F)cc1` (stereo partly drawn) [Example 214, 3-(4-Carbamimidoyl-phenyl)-N-{(S)-[(1-carbamimidoyl-piperidin-4-ylmethyl)-carbamoyl]-cyclohexyl-methyl}-2-(2-fluoro-phenyl)-propionamide trifluoroacetic acid salt], the figure is 47 nM.

Source of the values: patent US6759420B1, “Arylalkanoyl derivatives, processes for their preparation, their use and pharmaceutical compositions containing them” (Aventis Pharma Deutschland GmbH, priority 1999, dated 2004).
